Data from patent US20260130928A1, “COMBINATION OF AKR1C3 ACTIVATED ANTICANCER PRODRUG COMPOUND AND ANALGESIC DRUG FOR TREATING CANCER PATIENTS ACCOMPANIED BY PAIN” (ASCENTAWITS PHARMACEUTICALS, LTD., priority 2022, published 2026).
Like-named read-outs stand apart in the source and are kept apart here.

Key:
[1] = system: human lung cancer NCI-H460; assay: Pharmacodynamics in subcutaneous xenograft model of human lung cancer NCI-H460 (tumor volume, TGI); format: in vivo, BALB/c nude mice
Method: Measures of pharmacodynamics of AST-3424 monotherapy and combination therapy with Celecoxib were performed in a subcutaneous xenograft model of human lung cancer NCI-H460 established by using female BALB/c nude mice.
After the inoculation of tumor cell, tumor growth was routinely monitored, and tumor volume and mouse weight were measured. Evaluation of therapeutic efficiency was based on the relative tumor growth inhibition TGI (%). The specific results are shown in Table 3 and FIG. 3, and the Pharmacodynamics analysis data on Day 30 after inoculation (at the end of drug administration) are particularly given in Table 4.

[2] = read-out: Cmax converted to the molar concentration; celecoxib single dosage (200 mg) in healthy subjects
[3] = cited from earlier work
[4] = Body weight / tolerance of mice in the human lung cancer NCI-H460 model
Method: BALB/c nude mice were subcutaneously inoculated with human lung cancer NCI-H460 cells to establish the subcutaneous transplant tumor model of human lung cancer. The experiment was assigned to seven groups, with 5 mice in each group: the test drug Celecoxib 50 mg/kg and 100 mg/kg groups, the AST-3424 2.5 mg/kg group, and different combination therapy groups of Celecoxib 50 mg/kg or 100 mg/kg and AST-3424 2.5 mg/kg, and the 0.5% sodium carboxymethylcellulose vehicle control group. […] The AST-3424 2.5 mg/kg group was administered by tail vein injection once a week for a total of three weeks, and observed for 7 days. In the combination therapy groups of Celecoxib 50 mg/kg or 100 mg/kg and AST-3424 2.5 mg/kg, Celecoxib was administered by gavage once a day for a total of 15 days, and AST-3424 was administered by tail vein injection once a week for a total of three weeks, and observed for 7 days.

H460 cell line = assay: In vitro cell proliferation inhibition with the drug combination (CTG method); format: cell-based, human; conditions: combined with AST-3424
Method: • a) H460 cells (human non-small lung cancer cells, AKR1C3 enzyme highly expressed) were cultured in RPMI-1640 medium, added with 10% FBS and 1% double antibody, and placed at 37° C. and 5% CO2 for culturing.
• a) The cells were routinely cultured until the cell saturation was 80%-90%, and when the required quantity was reached, the cells were collected. • b) The cells were resuspended with the corresponding medium and cell counts were performed to prepare a cell suspension with appropriate density. • c) The cell suspension was added to a 96-well plate with 100 μL per well, and the cell density was 2,000 cells per well. • d) The cells were incubated overnight in an incubator at 37° C. with 5% CO2. 1.1.3 Treating Cells with Compound (72 Hours)
AST-3424 alone: after 24 hours of cell seeding, AST-3424 was administered alone. Specifically, each well was supplemented with 99 μL of growth medium, and then added with 1 μL of the prepared AST-3424 solution to form different concentrations of AST-3424. The plate was shaken gently to ensure uniform mixing, and placed in an incubator at 37° C. with 5% CO2.
The cell plates were placed in the incubator for 72 hours.
1.1.4 Treating Cells with Compound (2 Hours) • a) Administrating single drug: after 24 hours of cell seeding, AST-3424 was administered alone. Specifically, each well was supplemented with 99 μL of growth medium, and then added with 1 μL of the prepared AST-3424 solution to form different concentrations of AST-3424. The plate was shaken gently to ensure uniform mixing, and placed in the incubator for 2 hours. […] The plate was shaken gently to ensure uniform mixing. After the plate was placed in the incubator for 2 hours, 1 μL of the prepared AST-3424 solution was added to form different concentrations of AST-3424. The plate was shaken gently to ensure uniform mixing, and placed in the incubator at 37° C. with 5% CO2 for another 2 hours. Then, the supernatant was discarded, and the remainder was washed twice with growth medium and added with 200 μL of fresh medium.
1.1.6 Detecting with CTG Method • a) The cell plate to be tested was placed at room temperature to equilibrium for 30 minutes, and 100 μL of culture medium was discarded from each well. • b) 25 μL CTG reagent (CelltiterGlo kit) was added to each well. The plate was placed on a fast shaker to shake for 2 minutes, and then placed at room temperature away from light for 30 minutes. • c) The chemiluminescent signal value was read with multifunctional microplate reader at reading time of 1000 ms.
IC50 was calculated with GraphPad Prism 5 software, and the IC50 (half maximal inhibitory concentration) of the compound was obtained using the following nonlinear fitting formula: […]

AKR1C3 = conditions: reported in literature; cited from earlier work
clinical = conditions: human, in vivo
[5] = Group 2: Celecoxib 50 mg/kg QD×15 p.o., Day 30 after inoculation
[6] = Group 3: Celecoxib 100 mg/kg QD×15 p.o., Day 30 after inoculation
[7] = Group 2: Celecoxib 50 mg/kg QD×15 p.o., Day 37 after the inoculation of tumor cell
[8] = Group 3: Celecoxib 100 mg/kg QD×15 p.o., Day 37 after the inoculation of tumor cell

SMILES: Cc1ccc(-c2cc(C(F)(F)F)nn2-c2ccc(S(N)(=O)=O)cc2)cc1 [Celecoxib]
- Tumor volume (x ± S) ([1]; Group 2: Celecoxib 50 mg/kg QD×15 p.o., Day 9 after cell inoculation): 145.68 ± 12.36 mm^3
- Tumor volume (x ± S) ([1]; Group 2: Celecoxib 50 mg/kg QD×15 p.o., Day 12 after cell inoculation): 162.55 ± 9.74 mm^3
- Tumor volume (x ± S) ([1]; Group 2: Celecoxib 50 mg/kg QD×15 p.o., Day 16 after cell inoculation): 175.22 ± 11.61 mm^3
- Tumor volume (x ± S) ([1]; Group 2: Celecoxib 50 mg/kg QD×15 p.o., Day 19 after cell inoculation): 214.83 ± 26.19 mm^3
- Tumor volume (x ± S) ([1]; Group 2: Celecoxib 50 mg/kg QD×15 p.o., Day 23 after cell inoculation): 361.15 ± 68.57 mm^3
- Tumor volume (x ± S) ([1]; Group 2: Celecoxib 50 mg/kg QD×15 p.o., Day 26 after cell inoculation): 471.39 ± 90.94 mm^3
- Tumor volume (x ± S) ([1]; Group 2: Celecoxib 50 mg/kg QD×15 p.o., Day 30 after cell inoculation): 577.49 ± 102.95 mm^3
- Relative tumor volume (x ± S) [1, 5]: 3.91 ± 0.45
- T/C (%) [1, 5]: 70.13%
- TGI (%) [1, 5]: 29.87%
- Tumor volume (x ± S) ([1]; Group 2: Celecoxib 50 mg/kg QD×15 p.o., Day 30 after inoculation, in mm³): 577.49 ± 102.95
- Tumor volume (x ± S) ([1]; Group 2: Celecoxib 50 mg/kg QD×15 p.o., Day 33 after cell inoculation): 655.39 ± 126.55 mm^3
- Tumor volume (x ± S) ([1]; Group 2: Celecoxib 50 mg/kg QD×15 p.o., Day 37 after cell inoculation): 1053.12 ± 274.37 mm^3
- Tumor volume (x ± S) ([1]; Group 3: Celecoxib 100 mg/kg QD×15 p.o., Day 9 after cell inoculation): 144.13 ± 11.94 mm^3
- Tumor volume (x ± S) ([1]; Group 3: Celecoxib 100 mg/kg QD×15 p.o., Day 12 after cell inoculation): 166.97 ± 17.80 mm^3
- Tumor volume (x ± S) ([1]; Group 3: Celecoxib 100 mg/kg QD×15 p.o., Day 16 after cell inoculation): 233.79 ± 48.62 mm^3
- Tumor volume (x ± S) ([1]; Group 3: Celecoxib 100 mg/kg QD×15 p.o., Day 19 after cell inoculation): 331.06 ± 73.94 mm^3
- Tumor volume (x ± S) ([1]; Group 3: Celecoxib 100 mg/kg QD×15 p.o., Day 23 after cell inoculation): 479.72 ± 117.21 mm^3
- Tumor volume (x ± S) ([1]; Group 3: Celecoxib 100 mg/kg QD×15 p.o., Day 26 after cell inoculation): 581.86 ± 130.92 mm^3
- Tumor volume (x ± S) ([1]; Group 3: Celecoxib 100 mg/kg QD×15 p.o., Day 30 after cell inoculation): 730.52 ± 183.64 mm^3
- Relative tumor volume (x ± S) [1, 6]: 4.86 ± 0.82
- T/C (%) [1, 6]: 87.16%
- TGI (%) [1, 6]: 12.84%
- Tumor volume (x ± S) ([1]; Group 3: Celecoxib 100 mg/kg QD×15 p.o., Day 30 after inoculation, in mm³): 730.52 ± 183.64
- Tumor volume (x ± S) ([1]; Group 3: Celecoxib 100 mg/kg QD×15 p.o., Day 33 after cell inoculation): 867.83 ± 225.15 mm^3
- Tumor volume (x ± S) ([1]; Group 3: Celecoxib 100 mg/kg QD×15 p.o., Day 37 after cell inoculation): 1459.88 ± 505.50 mm^3
- Cmax [2]: 1.85 µM
- Cmax ([3]; celecoxib single dosage (200 mg) in healthy subjects, drug instructions): 705 ng/mL
- Mean body weight g (x ± S) ([4]; Group 2: Celecoxib 50 mg/kg QD×15 p.o., Day 9 after the inoculation of tumor cell): 24.8 ± 0.5 g
- Change of body weight (%) [4, 7]: 4.05%
- Mean body weight g (x ± S) [4, 7]: 25.8 ± 0.4 g
- Mean body weight g (x ± S) ([4]; Group 3: Celecoxib 100 mg/kg QD×15 p.o., Day 9 after the inoculation of tumor cell): 25.2 ± 0.5 g
- Change of body weight (%) [4, 8]: 2.28%
- Mean body weight g (x ± S) [4, 8]: 25.8 ± 0.6 g

SMILES: CC(C)Cc1ccc(C(C)C(=O)O)cc1 (centres unmarked) [Ibuprofen]
- effect of the combination on the cell proliferation inhibitory activity of AST-3424 (H460 cell line): almost no effect
- AKR1C3 inhibitory activity (AKR1C3): have AKR1C3 inhibitory activity
- Cmax (clinical): 94 µM
- Cmax ([3]; ibuprofen reference preparation, single dose, fasting, healthy Chinese subjects): 19400 ng/mL
